In patent US20240116985A1, “STAPLED PEPTIDES AND METHODS THEREOF” (priority 2020, published 2024):

What was measured:
[1] = target: T1, full-length beta-Catenin (Uniprot ID P35222) (Homo sapiens, UniProt P35222); experiment: Fluorescence polarization IC50 (beta-catenin / 5FAM-TCF4 10-53 competition); type: binding; conditions: fluorescence polarization; read-out: beta-Catenin FP IC50
T1 construct: 10 nM full-length beta-Catenin (Uniprot ID P35222)
T1 sequence (P35222 1-781): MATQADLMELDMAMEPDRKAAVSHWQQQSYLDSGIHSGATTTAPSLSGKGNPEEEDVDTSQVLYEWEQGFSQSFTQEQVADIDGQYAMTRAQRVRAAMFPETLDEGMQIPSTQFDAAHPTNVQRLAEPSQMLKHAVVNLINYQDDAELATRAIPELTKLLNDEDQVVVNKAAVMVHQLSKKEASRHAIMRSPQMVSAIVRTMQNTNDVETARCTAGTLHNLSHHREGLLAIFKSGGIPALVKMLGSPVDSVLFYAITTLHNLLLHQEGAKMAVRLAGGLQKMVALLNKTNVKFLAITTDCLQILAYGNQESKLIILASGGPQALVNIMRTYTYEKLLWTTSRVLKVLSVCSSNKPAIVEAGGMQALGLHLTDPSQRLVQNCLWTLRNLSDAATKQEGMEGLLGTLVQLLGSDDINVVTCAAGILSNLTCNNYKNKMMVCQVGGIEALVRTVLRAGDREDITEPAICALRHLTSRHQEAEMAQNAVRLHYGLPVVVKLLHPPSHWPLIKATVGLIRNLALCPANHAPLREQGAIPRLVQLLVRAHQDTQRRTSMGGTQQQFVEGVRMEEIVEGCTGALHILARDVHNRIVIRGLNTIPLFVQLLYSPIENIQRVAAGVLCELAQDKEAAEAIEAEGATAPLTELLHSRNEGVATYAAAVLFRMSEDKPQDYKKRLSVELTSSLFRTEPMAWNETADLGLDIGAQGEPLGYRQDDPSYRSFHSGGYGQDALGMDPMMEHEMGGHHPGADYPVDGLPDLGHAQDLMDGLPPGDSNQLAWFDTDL

[2] = target: T2, beta-catenin/TCF4 engagement (Homo sapiens, UniProt P35222); experiment: Nano-BRET target engagement assay (B-cat-Halo & TCF4-Luc in HEK293 cells); type: cell-based; conditions: absolute IC50; read-out: NanoBRET Abs IC50
T2 construct: expressed in transfected cells; host or cells: HEK293
T2 sequence (P35222 1-781): T1 sequence (P35222 1-781)

| SMILES | IC50 [1] [nM] | IC50 [2] [nM] |
| --- | --- | --- |
| CC(=O)N1CCC[C@]12CC=CCCCC1(CCCC=CCCCOC(=O)N3CC[C@@](C(=O)N[C@@H](Cc4ccccc4Cl)C(=O)N[C@@H](Cc4csc5ccccc45)C(=O)N[C@@H](CCC(N)=O)C(=O)N4CCC[C@H]4CO)(C3)NC(=O)[C@H](CC(C)C)NC(=O)[C@H](Cc3ccccc3)NC(=O)[C@H](C)NC(=O)[C@H](C)NC(=O)[C@H](Cc3cccc(C(=O)O)c3)NC(=O)[C@H](CC(=O)O)NC1=O)NC(=O)[C@H](CC(C)(C)C)NC(=O)[C@H](CC(=O)O)NC2=O (stereo partly drawn) [I-1675, Ac-PL3-Asp-Npg-B5-Asp-3COOHF-Ala-Ala-Phe-Leu-PyrS2-2C1F-BztA-Gln-Proo1] | 18.5 | 9700 |
| CCNC(=O)[C@H](CCC(N)=O)NC(=O)[C@H](Cc1csc2ccccc12)NC(=O)[C@H](Cc1ccsc1)NC(=O)[C@]12CCN(C1)C(=O)OCCCC=CCCCC1(CCCC=CC[C@]3(CCCN3C(C)=O)C(=O)N[C@@H](CC(=O)O)C(=O)N[C@@H](CC(C)(C)C)C(=O)N1)C(=O)N[C@@H](CC(=O)O)C(=O)N[C@@H](CN(CC(=O)O)CC(F)(F)F)C(=O)N[C@@H](C)C(=O)N[C@@H](C)C(=O)N[C@@H](Cc1ccccc1)C(=O)N[C@@H](CC(C)C)C(=O)N2 (stereo partly drawn) [I-1678, Ac-PL3-Asp-Npg-B5-Asp-TfeGA-Ala-Ala-Phe-Leu-PyrS2-3Thi-BztA-Gln-NHEt] | 32 | 9700 |
| CC(=O)N1CCC[C@]12CC=CCCCC1(CCCC=CCCCOC(=O)N3CC[C@@](C(=O)N[C@@H](Cc4ccsc4)C(=O)N[C@@H](Cc4csc5ccccc45)C(=O)N[C@@H](CCC(N)=O)C(=O)N[C@H](CO)Cc4ccccc4)(C3)NC(=O)[C@H](CC(C)C)NC(=O)[C@H](Cc3ccccc3)NC(=O)[C@H](C)NC(=O)[C@H](C)NC(=O)[C@H](CN(CC(=O)O)CC(F)(F)F)NC(=O)[C@H](CC(=O)O)NC1=O)NC(=O)[C@H](CC(C)(C)C)NC(=O)[C@H](CC(=O)O)NC2=O (stereo partly drawn) [I-1680, Ac-PL3-Asp-Npg-B5-Asp-TfeGA-Ala-Ala-Phe-Leu-PyrS2-3Thi-BztA-Gln-Pheo1] | 80.5 | 12500 |
| CC(=O)N1CCC[C@]12CC=CCCCC1(CCCC=CCCCOC(=O)N3CC[C@@](C(=O)N[C@@H](Cc4ccsc4)C(=O)N[C@@H](Cc4csc5ccccc45)C(=O)N[C@@H](CCC(N)=O)C(=O)N4CCC[C@H]4CO)(C3)NC(=O)[C@H](CC(C)C)NC(=O)[C@H](Cc3ccccc3)NC(=O)[C@H](C)NC(=O)[C@H](C)NC(=O)[C@H](CN(CC(=O)O)CC(F)(F)F)NC(=O)[C@H](CC(=O)O)NC1=O)NC(=O)[C@H](CC(C)(C)C)NC(=O)[C@H](CC(=O)O)NC2=O (stereo partly drawn) [I-1681, Ac-PL3-Asp-Npg-B5-Asp-TfeGA-Ala-Ala-Phe-Leu-PyrS2-3Thi-BztA-Gln-Proo1] | 18.5 | 5400 |
| CC(=O)N1CCC[C@]12CC=CCCCC1(CCCC=CCCCOC(=O)N3CC[C@@](C(=O)N[C@@H](Cc4ccccc4Cl)C(=O)N[C@@H](Cc4csc5ccccc45)C(=O)N[C@@H](CCC(N)=O)C(N)=O)(C3)NC(=O)[C@H](CC(C)C)NC(=O)[C@H](Cc3ccccc3)NC(=O)CNC(=O)[C@H](C)NC(=O)[C@H](Cc3cccc(C(=O)O)c3)NC(=O)[C@H](CC(=O)O)NC1=O)NC(=O)[C@H](CC(C)(C)C)NC(=O)[C@H](CC(=O)O)NC2=O (stereo partly drawn) [I-1687, Ac-PL3-Asp-Npg-B5-Asp-3COOHF-Ala-Gly-Phe-Leu-PyrS2-2C1F-BztA-Gln-NH2] | 42 | 18600 |
| CCCC[C@@H]1NC(=O)[C@H](Cc2cccc(C(=O)O)c2)NC(=O)[C@H](CC(=O)O)NC(=O)C2(CCCC=CCCCOC(=O)N3CC[C@@](C(=O)N[C@@H](Cc4ccccc4Cl)C(=O)N[C@@H](Cc4csc5ccccc45)C(=O)N[C@@H](CCC(N)=O)C(N)=O)(C3)NC(=O)[C@H](CC(C)C)NC(=O)[C@H](Cc3ccccc3)NC(=O)CNC1=O)CCCC=CC[C@]1(CCCN1C(C)=O)C(=O)N[C@@H](CC(=O)O)C(=O)N[C@@H](CC(C)(C)C)C(=O)N2 (stereo partly drawn) [I-1688, Ac-PL3-Asp-Npg-B5-Asp-3COOHF-nLeu-Gly-Phe-Leu-PyrS2-2C1F-BztA-Gln-NH2] | 59 | 21500 |
| CC(=O)N1CCC[C@]12CC=CCCCC1(CCCC=CCCCOC(=O)N3CC[C@@](C(=O)N[C@@H](Cc4ccccc4Cl)C(=O)N[C@@H](Cc4csc5ccccc45)C(=O)N[C@@H](CCC(N)=O)C(N)=O)(C3)NC(=O)[C@H](CC(C)C)NC(=O)[C@H](Cc3ccccc3)NC(=O)CNC(=O)C(C)(C)NC(=O)[C@H](Cc3cccc(C(=O)O)c3)NC(=O)[C@H](CC(=O)O)NC1=O)NC(=O)[C@H](CC(C)(C)C)NC(=O)[C@H](CC(=O)O)NC2=O (stereo partly drawn) [I-1689, Ac-PL3-Asp-Npg-B5-Asp-3COOHF-Aib-Gly-Phe-Leu-PyrS2-2C1F-BztA-Gln-NH2] | 25.5 | 12500 |
| CC(=O)N1CCC[C@]12CC=CCCCC1(CCCC=CCCCOC(=O)N3CC[C@@](C(=O)N[C@@H](Cc4ccccc4Cl)C(=O)N[C@@H](Cc4csc5ccccc45)C(=O)N[C@@H](CCC(N)=O)C(N)=O)(C3)NC(=O)[C@H]([C@@H](C)O)NC(=O)[C@H](Cc3ccccc3)NC(=O)CNC(=O)[C@H](C)NC(=O)[C@H](CN(CC(=O)O)CC(F)(F)F)NC(=O)[C@H](CC(=O)O)NC1=O)NC(=O)[C@H](CC(C)(C)C)NC(=O)[C@H](CC(=O)O)NC2=O (stereo partly drawn) [I-1694, Ac-PL3-Asp-Npg-B5-Asp-TfeGA-Ala-Gly-Phe-Thr-PyrS2-2C1F-BztA-Gln-NH2] | 57 | 43600 |

Stronger by IC50 [1], values ahead:

| IC50 [1] [nM] | IC50 [2] [nM] | SMILES |
| --- | --- | --- |
| 9 | 3700 | CC(=O)N1CCC[C@]12CC=CCCCC1(CCCC=CCCCOC(=O)N3CC[C@@](C(=O)N[C@@H](Cc4ccsc4)C(=O)N[C@@H](Cc4csc5ccccc45)C(=O)N[C@@H](CCC(N)=O)C(=O)N[C@H](CO)[C@@H](C)O)(C3)NC(=O)[C@H](CC(C)C)NC(=O)[C@H](Cc3ccccc3)NC(=O)[C@H](C)NC(=O)[C@H](C)NC(=O)[C@H](CN(CC(=O)O)CC(F)(F)F)NC(=O)[C@H](CC(=O)O)NC1=O)NC(=O)[C@H](CC(C)(C)C)NC(=O)[C@H](CC(=O)O)NC2=O (stereo partly drawn) [I-1683, Ac-PL3-Asp-Npg-B5-Asp-TfeGA-Ala-Ala-Phe-Leu-PyrS2-3Thi-BztA-Gln-Thro1] |
| 11 | 5400 | CC(=O)N1CCC[C@]12CC=CCCCC1(CCCC=CCCCOC(=O)N3CC[C@@](C(=O)N[C@@H](Cc4ccccc4Cl)C(=O)N[C@@H](Cc4csc5ccccc45)C(=O)N[C@@H](CCC(N)=O)C(N)=O)(C3)NC(=O)[C@H](CC(C)C)NC(=O)[C@H](Cc3ccccc3)NC(=O)[C@H](C)NC(=O)C(C)(C)NC(=O)[C@H](Cc3cccc(C(=O)O)c3)NC(=O)[C@H](CC(=O)O)NC1=O)NC(=O)[C@H](CC(C)(C)C)NC(=O)[C@H](CC(=O)O)NC2=O (stereo partly drawn) [I-1686, Ac-PL3-Asp-Npg-B5-Asp-3COOHF-Aib-Ala-Phe-Leu-PyrS2-2C1F-BztA-Gln-NH2] |
| 11 | 12800 | CC(=O)N1CCC[C@]12CC=CCCCC1(CCCC=CCCCOC(=O)N3CC[C@@](C(=O)N[C@@H](Cc4ccccc4Cl)C(=O)N[C@@H](Cc4csc5ccccc45)C(=O)N[C@@H](CCC(N)=O)C(N)=O)(C3)NC(=O)[C@H]([C@@H](C)O)NC(=O)[C@H](Cc3ccccc3)NC(=O)[C@H](C)NC(=O)CNC(=O)[C@H](CN(CC(=O)O)CC(F)(F)F)NC(=O)[C@H](CC(=O)O)NC1=O)NC(=O)[C@H](CC(C)(C)C)NC(=O)[C@H](CC(=O)O)NC2=O (stereo partly drawn) [I-1691, Ac-PL3-Asp-Npg-B5-Asp-TfeGA-Gly-Ala-Phe-Thr-PyrS2-2C1F-BztA-Gln-NH2] |
| 17 | 10400 | CCCC[C@@H]1NC(=O)[C@H](CN(CC(=O)O)CC(F)(F)F)NC(=O)[C@H](CC(=O)O)NC(=O)C2(CCCC=CCCCOC(=O)N3CC[C@@](C(=O)N[C@@H](Cc4ccccc4Cl)C(=O)N[C@@H](Cc4csc5ccccc45)C(=O)N[C@@H](CCC(N)=O)C(N)=O)(C3)NC(=O)[C@H]([C@@H](C)O)NC(=O)[C@H](Cc3ccccc3)NC(=O)[C@H](C)NC1=O)CCCC=CC[C@]1(CCCN1C(C)=O)C(=O)N[C@@H](CC(=O)O)C(=O)N[C@@H](CC(C)(C)C)C(=O)N2 (stereo partly drawn) [I-1692, Ac-PL3-Asp-Npg-B5-Asp-TfeGA-nLeu-Ala-Phe-Thr-PyrS2-2C1F-BztA-Gln-NH2] |
| 10 | 4600 | CC(=O)N1CCC[C@]12CC=CCCCC1(CCCC=CCCCOC(=O)N3CC[C@@](C(=O)N[C@@H](Cc4ccccc4Cl)C(=O)N[C@@H](Cc4csc5ccccc45)C(=O)N[C@@H](CCC(N)=O)C(N)=O)(C3)NC(=O)[C@H]([C@@H](C)O)NC(=O)[C@H](Cc3ccccc3)NC(=O)[C@H](C)NC(=O)C(C)(C)NC(=O)[C@H](CN(CC(=O)O)CC(F)(F)F)NC(=O)[C@H](CC(=O)O)NC1=O)NC(=O)[C@H](CC(C)(C)C)NC(=O)[C@H](CC(=O)O)NC2=O (stereo partly drawn) [I-1693, Ac-PL3-Asp-Npg-B5-Asp-TfeGA-Aib-Ala-Phe-Thr-PyrS2-2C1F-BztA-Gln-NH2] |
